{
  "source": "patent US20120220581A1",
  "about": "“IMIDAZO[1,2-b]PYRIDAZINE DERIVATIVES AND THEIR USE AS PDE10 INHIBITORS” (Janssen-Cilag, S.A., priority 2009, published 2012)",
  "key": {"[1]": {"target": "other members of the PDE family (Homo sapiens, UniProt O60658)", "sequence (O60658 whole entry, canonical isoform)": "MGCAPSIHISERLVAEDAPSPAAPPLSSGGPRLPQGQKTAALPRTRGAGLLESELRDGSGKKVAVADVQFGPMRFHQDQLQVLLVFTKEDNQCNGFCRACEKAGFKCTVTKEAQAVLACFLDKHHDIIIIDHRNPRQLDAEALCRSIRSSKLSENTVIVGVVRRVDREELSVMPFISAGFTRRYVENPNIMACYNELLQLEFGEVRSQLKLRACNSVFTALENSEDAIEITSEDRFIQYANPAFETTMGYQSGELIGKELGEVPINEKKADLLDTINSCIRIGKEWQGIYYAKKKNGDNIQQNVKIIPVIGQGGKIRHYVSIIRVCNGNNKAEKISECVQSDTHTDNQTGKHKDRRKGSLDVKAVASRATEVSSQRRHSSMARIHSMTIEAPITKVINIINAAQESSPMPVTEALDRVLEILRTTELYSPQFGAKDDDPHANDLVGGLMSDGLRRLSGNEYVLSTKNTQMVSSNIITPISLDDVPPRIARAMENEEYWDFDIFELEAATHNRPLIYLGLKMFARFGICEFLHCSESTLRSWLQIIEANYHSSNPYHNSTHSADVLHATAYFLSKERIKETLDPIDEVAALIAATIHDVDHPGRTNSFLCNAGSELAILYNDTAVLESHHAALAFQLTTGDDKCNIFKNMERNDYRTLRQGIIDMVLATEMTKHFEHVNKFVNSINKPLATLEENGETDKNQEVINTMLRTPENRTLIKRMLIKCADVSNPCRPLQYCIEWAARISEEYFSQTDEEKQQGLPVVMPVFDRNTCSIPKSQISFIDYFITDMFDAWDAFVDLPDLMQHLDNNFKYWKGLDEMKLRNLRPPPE", "assay": "In vitro PDE selectivity assay (SPA), other members of the PDE family (protocols in Table A)", "type": "biochemical", "details": "hPDE8A1; read-out: PDE 8A1 (expressed as pIC50) (converted)", "outline": "(§1)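 Inhibition of each PDE isoform was measured by scintillation proximity assay with ³H-cyclic nucleotide substrate, using incubation buffer, substrate concentration, incubation time and stop solution adapted per isoform. Compounds were tested in dose-response against 1% DMSO controls and enzyme-free blanks. IC50 came from a least-squares fit of blank-subtracted % of control versus concentration.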"}, "[2]": {"target": "other members of the PDE family (Homo sapiens, UniProt P16499+P35913)", "sequence (P16499 whole entry)": "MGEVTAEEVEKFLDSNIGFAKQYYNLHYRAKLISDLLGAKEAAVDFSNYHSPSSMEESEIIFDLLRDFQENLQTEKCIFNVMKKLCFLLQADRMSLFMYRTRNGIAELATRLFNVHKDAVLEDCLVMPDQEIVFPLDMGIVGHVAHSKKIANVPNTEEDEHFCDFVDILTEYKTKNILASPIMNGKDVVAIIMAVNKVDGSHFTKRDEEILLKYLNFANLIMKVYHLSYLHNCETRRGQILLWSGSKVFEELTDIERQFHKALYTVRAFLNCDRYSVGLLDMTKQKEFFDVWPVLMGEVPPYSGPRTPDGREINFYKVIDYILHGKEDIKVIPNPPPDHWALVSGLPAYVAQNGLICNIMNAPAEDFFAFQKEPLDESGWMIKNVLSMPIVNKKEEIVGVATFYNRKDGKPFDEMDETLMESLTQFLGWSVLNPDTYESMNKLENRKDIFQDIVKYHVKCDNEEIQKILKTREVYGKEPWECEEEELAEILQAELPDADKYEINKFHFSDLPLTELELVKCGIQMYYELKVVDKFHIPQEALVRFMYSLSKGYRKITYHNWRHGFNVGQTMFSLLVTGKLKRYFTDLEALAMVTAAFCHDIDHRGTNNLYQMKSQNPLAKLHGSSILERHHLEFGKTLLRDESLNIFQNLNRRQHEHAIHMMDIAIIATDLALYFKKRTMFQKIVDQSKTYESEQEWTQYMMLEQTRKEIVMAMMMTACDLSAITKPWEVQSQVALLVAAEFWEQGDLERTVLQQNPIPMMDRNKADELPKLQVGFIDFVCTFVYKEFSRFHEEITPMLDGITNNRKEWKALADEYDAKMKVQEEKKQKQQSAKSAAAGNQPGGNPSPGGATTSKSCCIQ", "sequence (P35913 whole entry)": "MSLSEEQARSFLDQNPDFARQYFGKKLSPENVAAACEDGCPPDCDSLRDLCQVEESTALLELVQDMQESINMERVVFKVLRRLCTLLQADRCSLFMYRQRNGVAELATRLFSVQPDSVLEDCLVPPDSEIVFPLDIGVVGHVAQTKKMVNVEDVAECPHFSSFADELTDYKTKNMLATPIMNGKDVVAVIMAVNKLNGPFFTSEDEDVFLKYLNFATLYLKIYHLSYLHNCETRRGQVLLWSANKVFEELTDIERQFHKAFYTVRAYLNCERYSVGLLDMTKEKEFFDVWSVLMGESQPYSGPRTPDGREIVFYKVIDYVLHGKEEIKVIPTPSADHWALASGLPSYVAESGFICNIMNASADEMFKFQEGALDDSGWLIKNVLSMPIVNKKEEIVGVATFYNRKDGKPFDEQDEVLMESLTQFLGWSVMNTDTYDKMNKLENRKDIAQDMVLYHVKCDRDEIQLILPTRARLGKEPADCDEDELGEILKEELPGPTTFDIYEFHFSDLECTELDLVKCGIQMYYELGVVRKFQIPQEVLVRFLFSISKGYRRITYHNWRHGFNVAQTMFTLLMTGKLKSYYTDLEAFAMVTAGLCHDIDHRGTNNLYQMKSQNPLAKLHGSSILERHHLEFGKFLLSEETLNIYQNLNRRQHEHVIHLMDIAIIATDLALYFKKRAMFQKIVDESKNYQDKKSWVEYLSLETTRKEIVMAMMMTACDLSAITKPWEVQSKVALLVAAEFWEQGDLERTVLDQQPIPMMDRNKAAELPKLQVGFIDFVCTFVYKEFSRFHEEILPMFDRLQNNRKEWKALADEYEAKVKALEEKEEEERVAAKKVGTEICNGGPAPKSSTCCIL", "assay": "In vitro PDE selectivity assay (SPA), other members of the PDE family (protocols in Table A)", "type": "biochemical", "details": "hPDE6AB; read-out: PDE 6AB (expressed as pIC50) (converted)", "outline": "as §1"}, "PDE1B1": {"target": "PDE1B1 (Homo sapiens, UniProt Q01064)", "sequence (Q01064 whole entry, species assumed)": "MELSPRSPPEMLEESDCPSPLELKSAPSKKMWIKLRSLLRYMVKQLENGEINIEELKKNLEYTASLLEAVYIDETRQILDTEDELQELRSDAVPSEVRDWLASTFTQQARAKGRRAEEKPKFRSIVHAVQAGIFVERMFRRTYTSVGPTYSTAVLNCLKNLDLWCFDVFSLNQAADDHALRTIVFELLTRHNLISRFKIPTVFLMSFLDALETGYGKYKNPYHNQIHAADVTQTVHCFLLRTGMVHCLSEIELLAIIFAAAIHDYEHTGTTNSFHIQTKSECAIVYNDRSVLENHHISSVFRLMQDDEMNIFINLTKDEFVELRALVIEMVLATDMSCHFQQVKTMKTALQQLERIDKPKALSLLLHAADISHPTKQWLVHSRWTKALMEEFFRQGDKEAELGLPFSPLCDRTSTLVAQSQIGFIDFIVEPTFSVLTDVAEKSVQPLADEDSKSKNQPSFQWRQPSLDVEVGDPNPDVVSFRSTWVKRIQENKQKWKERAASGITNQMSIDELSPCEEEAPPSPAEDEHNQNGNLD", "assay": "In vitro PDE selectivity assay (SPA), PDE1B1", "type": "biochemical", "details": "hPDE1B1; read-out: PDE 1B1 (expressed as pIC50) (converted)"}, "[3]": {"test_system": "female hooded-Lister rats", "assay": "Object recognition test (NOR) after sub-chronic PCP", "type": "in vivo, rat", "details": "Day 1, 3 min retention trial, mean"}},
  "data": [
    {"smiles": "COCCc1ccc(-c2c(C)nc3c(N4CCOCC4)ccnn23)cn1", "note": "[compound 1, 3-[6-(2-methoxyethyl)-3-pyridinyl]-2-methyl-8-(4-morpholinyl)-imidazo[1,2-b]pyridazine]", "values": [
      {"measurement": "IC50", "setting": "[1]", "result": 77.6, "unit": "µM"},
      {"measurement": "IC50", "setting": "[2]", "result": 85.1, "unit": "µM"},
      {"measurement": "IC50", "setting": "PDE1B1", "result": 5.25, "unit": "µM"},
      {"measurement": "T2(A) exploration time of familiar object, retention trial", "setting": "[3]; PCP + 0.3 mg/kg p.o.", "result": 11.8, "unit": "s"},
      {"measurement": "T2(B) exploration time of novel object, retention trial", "setting": "[3]; PCP + 0.3 mg/kg p.o.", "result": 17.6, "unit": "s"},
      {"measurement": "T2(A) exploration time of familiar object, retention trial", "setting": "[3]; PCP + 1 mg/kg p.o.", "result": 10.7, "unit": "s"},
      {"measurement": "T2(B) exploration time of novel object, retention trial", "setting": "[3]; PCP + 1 mg/kg p.o.", "result": 22.3, "unit": "s"}
    ]}
  ]
}
